According to ChEMBL document CHEMBL1201862, “PubChem BioAssay data set” (2004):
Activity calls are given as the source filed them.

Tests used:
[1] = viability loss in THP-1 monocytes – THP-1 cells, cytotoxicity control for Vif-APOBEC3G degradation inhibitor project, dose response (AID 1117359); format: functional; conditions: THP-1
[2] = biological target: T1, Calpain-2 catalytic subunit (Sus scrofa, UniProt P43367); test: m-calpain protease blockers, concentration series – biochemical, fluorogenic peptide substrate, dose response (AID 1420); format: functional
T1 sequence (P43367 whole entry): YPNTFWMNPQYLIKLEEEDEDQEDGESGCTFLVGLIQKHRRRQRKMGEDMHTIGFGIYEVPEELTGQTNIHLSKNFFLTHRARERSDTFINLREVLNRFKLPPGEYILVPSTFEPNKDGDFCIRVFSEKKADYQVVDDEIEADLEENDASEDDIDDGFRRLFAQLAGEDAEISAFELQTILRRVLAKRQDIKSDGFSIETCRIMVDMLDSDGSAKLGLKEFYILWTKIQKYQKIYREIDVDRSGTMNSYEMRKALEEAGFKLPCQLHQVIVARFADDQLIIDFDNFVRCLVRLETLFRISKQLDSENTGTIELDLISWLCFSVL

Vero = test: viability of Vero cells under compound – cytotoxicity control for flavivirus capping enzyme inhibitors (AID 588742); format: functional; conditions: Chlorocebus sabaeus
[3] = biological target: Mitogen-activated protein kinase 10 (Homo sapiens, UniProt P53779); test: Dose response biochemical screening assay for inhibitors of c-Jun N-Terminal Kinase 3 (JNK3). [Related pubchem assays: 746 ]
[4] = Luminescence-based cell-based high throughput dose response assay to identify activators of the DAF-12 from the parasite S. stercoralis (ssDAF-12).; format: functional
[5] = biological target: T2, Oxysterols receptor LXR-beta (Homo sapiens, UniProt P55055); test: LXR agonists, Gal4 luciferase reporter, dose response, counter-screen for ssDAF-12 agonist project, cell-based, luminescence, HEK293, S. stercoralis campaign (AID 720737); format: functional; conditions: read-out: IC50 (the source's name)
T2 sequence (P55055 whole entry): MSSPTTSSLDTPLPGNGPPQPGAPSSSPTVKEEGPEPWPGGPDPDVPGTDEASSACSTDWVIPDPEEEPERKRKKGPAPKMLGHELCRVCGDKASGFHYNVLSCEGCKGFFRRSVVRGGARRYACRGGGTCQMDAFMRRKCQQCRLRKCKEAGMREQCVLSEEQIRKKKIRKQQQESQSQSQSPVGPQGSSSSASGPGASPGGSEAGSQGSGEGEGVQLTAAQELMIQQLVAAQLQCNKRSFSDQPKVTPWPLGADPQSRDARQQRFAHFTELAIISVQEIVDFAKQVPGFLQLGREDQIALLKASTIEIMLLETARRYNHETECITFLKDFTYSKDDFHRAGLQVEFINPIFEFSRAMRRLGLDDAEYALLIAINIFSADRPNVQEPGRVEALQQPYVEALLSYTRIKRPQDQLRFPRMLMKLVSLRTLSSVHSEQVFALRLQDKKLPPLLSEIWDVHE

[6] = biological target: T3, 1-phosphatidylinositol 4,5-bisphosphate phosphodiesterase gamma-1 (Homo sapiens, UniProt P19174); test: Counterscreen for inhibitors of phospholipase C isozymes (PLC-B3): Fluorescence-based biochemical high throughput dose response assay to identify inhibitors of phospholipase C isozymes (PLC-gamma1).
T3 sequence (P19174 whole entry): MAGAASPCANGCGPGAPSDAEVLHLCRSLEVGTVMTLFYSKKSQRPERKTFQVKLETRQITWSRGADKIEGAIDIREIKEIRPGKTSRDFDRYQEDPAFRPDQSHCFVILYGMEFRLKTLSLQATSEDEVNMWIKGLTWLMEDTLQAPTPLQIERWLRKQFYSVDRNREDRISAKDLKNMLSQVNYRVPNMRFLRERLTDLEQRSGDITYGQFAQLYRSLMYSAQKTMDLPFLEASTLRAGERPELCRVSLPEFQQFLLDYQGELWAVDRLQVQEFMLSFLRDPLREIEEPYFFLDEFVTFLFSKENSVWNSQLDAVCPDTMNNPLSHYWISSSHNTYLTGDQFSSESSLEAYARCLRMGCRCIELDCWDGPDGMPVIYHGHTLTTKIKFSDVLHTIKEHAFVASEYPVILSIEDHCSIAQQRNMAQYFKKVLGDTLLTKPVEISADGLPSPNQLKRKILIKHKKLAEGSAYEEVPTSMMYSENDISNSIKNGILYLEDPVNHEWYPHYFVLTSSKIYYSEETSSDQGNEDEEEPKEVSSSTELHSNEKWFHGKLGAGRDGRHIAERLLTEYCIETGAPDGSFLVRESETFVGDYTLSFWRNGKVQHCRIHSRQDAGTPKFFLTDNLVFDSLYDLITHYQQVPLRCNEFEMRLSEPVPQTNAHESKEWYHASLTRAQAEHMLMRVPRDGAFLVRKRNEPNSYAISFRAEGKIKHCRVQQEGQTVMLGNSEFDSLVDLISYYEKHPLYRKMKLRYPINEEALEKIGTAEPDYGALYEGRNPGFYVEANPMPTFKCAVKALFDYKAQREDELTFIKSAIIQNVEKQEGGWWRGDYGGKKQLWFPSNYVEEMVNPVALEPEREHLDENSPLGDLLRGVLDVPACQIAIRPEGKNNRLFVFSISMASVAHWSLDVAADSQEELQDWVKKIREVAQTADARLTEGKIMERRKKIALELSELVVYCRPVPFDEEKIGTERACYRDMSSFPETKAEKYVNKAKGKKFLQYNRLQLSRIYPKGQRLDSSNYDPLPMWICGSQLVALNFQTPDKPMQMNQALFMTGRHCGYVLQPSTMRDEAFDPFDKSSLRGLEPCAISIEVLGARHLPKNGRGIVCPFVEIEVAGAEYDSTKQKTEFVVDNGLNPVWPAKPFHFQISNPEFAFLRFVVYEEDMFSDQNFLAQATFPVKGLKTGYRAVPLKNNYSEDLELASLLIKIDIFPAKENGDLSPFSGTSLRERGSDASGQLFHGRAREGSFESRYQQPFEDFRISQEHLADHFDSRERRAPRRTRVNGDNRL

[7] = biological target: T4, 1-phosphatidylinositol 4,5-bisphosphate phosphodiesterase beta-3 (Homo sapiens, UniProt Q01970); test: Fluorescence-based biochemical high throughput dose response assay to identify inhibitors of phospholipase C isozymes (PLC-B3).
T4 sequence (Q01970 whole entry): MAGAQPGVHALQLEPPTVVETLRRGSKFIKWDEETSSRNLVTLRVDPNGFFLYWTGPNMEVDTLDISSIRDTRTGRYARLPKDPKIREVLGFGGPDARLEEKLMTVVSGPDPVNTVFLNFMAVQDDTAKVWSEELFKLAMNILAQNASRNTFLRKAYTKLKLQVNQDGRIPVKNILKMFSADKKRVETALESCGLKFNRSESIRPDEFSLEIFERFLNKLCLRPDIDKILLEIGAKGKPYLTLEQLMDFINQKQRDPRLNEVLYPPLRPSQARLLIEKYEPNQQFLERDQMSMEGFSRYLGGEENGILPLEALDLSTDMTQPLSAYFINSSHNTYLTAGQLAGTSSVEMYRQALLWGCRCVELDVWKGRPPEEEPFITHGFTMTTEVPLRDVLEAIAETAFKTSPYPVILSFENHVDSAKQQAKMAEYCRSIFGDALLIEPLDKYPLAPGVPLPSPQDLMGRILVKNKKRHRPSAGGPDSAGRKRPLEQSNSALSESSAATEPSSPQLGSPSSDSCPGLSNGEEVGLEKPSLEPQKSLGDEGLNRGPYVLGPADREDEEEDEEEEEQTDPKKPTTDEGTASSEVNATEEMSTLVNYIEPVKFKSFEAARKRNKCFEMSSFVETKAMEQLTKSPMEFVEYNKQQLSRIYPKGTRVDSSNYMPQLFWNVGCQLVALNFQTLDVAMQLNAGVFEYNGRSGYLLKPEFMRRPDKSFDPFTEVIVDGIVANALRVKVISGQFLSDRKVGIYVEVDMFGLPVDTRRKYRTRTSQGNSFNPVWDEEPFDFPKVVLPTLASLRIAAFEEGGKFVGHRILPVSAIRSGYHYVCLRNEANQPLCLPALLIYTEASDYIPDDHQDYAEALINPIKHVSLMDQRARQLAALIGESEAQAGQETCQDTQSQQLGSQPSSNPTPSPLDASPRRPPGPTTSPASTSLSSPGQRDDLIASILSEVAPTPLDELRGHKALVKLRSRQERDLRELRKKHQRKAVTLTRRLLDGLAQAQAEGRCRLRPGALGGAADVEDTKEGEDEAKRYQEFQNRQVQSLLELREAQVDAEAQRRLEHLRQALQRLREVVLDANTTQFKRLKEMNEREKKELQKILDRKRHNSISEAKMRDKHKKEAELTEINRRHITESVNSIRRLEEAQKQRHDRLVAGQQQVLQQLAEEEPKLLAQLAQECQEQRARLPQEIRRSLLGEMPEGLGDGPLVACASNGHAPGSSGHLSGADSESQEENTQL

Large T antigen = Large T antigen (Simian virus 40, UniProt P03070); format: functional, Betapolyomavirus macacae;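 further: Confirmatory-stage PubChem screen for compounds that inhibit SV40 T antigen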
[8] = biological target: Induced myeloid leukemia cell differentiation protein Mcl-1 (Homo sapiens, UniProt Q07820); format: functional
[9] = biological target: T5, Heat shock factor protein 1 (Mus musculus, UniProt P38532); test: enhancement of HSF1-driven luciferase signal – cell-based, NIH3T3, luminescence, dose retest, confirmation (AID 435004); format: functional;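 further: stress induced by proteasome inhibitor MG132 added 30 min after compound; luciferase reporter driven by HSF1 response element in NIH3T3 cells; actives raise luminescence as potentiators of the MG132 stress response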
T5 sequence (P38532 whole entry): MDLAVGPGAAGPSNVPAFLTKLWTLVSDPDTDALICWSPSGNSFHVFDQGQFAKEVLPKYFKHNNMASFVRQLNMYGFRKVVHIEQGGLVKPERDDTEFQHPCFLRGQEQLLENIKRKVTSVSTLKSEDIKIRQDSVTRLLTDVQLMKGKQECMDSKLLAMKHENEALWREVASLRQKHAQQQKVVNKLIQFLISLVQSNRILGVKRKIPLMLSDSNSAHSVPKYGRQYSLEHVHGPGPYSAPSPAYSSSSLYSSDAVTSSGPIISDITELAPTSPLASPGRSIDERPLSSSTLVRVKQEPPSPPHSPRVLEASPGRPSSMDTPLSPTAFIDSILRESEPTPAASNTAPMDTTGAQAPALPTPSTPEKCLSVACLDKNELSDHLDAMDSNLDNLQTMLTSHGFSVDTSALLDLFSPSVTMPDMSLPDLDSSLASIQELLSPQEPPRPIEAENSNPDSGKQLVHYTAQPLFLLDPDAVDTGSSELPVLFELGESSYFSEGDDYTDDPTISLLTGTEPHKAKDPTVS

Kallikrein-7 = Kallikrein-7 (Homo sapiens, UniProt P49862); test: Fluorescence Intensity-based biochemical primary high throughput dose response assay to identify activators of kallikrein-7 (K7) zymogen.
[10] = biological target: Luciferin 4-monooxygenase (Photinus pyralis, UniProt P08659); test: inhibition of purified Photinus pyralis luciferase – biochemical, luminescence, dose response (AID 1891)
[11] = Luminescence Cell-Based Dose Confirmation HTS to Identify Inhibitors of Platelet Dense Granule Release. [Related pubchem assays: 1663 (Primary HTS), 1678 (Summary of Project)]; format: functional
[12] = biological target: T6, Rac GTPase-activating protein 1 (Homo sapiens, UniProt Q9H0H5); test: blockers of MgcRacGAP-driven Rac1 GTP hydrolysis – biochemical, ADP Hunter fluorescence, primary and confirmatory, confirmation (AID 624330); format: functional
T6 sequence (Q9H0H5 whole entry): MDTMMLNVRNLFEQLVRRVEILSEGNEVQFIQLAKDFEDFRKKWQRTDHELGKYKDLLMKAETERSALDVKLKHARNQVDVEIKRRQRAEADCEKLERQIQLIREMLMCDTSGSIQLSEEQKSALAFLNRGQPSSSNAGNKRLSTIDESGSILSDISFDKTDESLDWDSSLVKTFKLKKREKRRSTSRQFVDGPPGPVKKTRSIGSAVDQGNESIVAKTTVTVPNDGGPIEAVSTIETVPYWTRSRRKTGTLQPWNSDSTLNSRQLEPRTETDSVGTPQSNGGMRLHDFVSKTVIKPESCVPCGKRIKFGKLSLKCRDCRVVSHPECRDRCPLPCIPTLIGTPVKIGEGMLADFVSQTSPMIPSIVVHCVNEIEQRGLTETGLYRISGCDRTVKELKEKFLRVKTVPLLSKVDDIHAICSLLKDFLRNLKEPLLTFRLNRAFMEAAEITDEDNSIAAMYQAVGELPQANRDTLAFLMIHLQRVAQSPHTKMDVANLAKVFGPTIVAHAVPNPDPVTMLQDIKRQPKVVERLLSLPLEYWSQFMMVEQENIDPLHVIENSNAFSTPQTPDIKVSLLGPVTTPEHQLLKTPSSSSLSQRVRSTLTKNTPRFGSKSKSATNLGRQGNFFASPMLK

Chain of Mitogen-activated protein kinase 10 (P53779 whole entry): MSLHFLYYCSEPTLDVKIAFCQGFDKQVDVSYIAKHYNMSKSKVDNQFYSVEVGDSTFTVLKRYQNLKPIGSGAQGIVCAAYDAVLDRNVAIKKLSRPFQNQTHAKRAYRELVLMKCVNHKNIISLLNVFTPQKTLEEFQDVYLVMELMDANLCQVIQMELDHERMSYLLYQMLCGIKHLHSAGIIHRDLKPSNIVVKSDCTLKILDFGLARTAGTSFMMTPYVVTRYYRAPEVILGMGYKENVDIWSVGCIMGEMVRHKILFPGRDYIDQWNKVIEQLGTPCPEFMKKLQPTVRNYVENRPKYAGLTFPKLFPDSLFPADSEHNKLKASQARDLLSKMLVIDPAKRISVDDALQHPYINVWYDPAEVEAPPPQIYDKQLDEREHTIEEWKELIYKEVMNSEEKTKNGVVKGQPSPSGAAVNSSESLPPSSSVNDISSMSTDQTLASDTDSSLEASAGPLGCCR
Chain of Kallikrein-7 (P49862 whole entry): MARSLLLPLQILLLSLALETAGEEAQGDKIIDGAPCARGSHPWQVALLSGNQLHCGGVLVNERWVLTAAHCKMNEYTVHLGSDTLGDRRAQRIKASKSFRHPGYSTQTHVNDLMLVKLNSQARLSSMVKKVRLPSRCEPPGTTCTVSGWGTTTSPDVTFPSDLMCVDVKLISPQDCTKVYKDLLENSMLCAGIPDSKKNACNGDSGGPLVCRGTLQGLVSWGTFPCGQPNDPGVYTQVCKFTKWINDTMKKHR
Chain of Luciferin 4-monooxygenase (P08659 whole entry): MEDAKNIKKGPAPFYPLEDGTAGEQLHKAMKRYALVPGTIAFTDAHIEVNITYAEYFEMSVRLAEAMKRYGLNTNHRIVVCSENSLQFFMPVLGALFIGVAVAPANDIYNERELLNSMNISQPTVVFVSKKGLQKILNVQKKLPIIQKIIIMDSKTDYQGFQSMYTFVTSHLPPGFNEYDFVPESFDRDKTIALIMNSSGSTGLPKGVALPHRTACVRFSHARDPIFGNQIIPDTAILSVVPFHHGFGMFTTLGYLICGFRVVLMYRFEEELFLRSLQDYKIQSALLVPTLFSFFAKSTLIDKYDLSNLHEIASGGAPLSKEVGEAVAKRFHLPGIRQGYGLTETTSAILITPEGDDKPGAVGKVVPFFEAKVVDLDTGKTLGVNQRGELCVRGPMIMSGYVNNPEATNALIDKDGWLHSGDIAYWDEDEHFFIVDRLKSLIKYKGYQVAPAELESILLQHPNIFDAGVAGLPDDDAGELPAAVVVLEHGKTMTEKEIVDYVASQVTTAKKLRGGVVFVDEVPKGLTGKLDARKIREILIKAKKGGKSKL
Chain of Large T antigen (P03070 whole entry): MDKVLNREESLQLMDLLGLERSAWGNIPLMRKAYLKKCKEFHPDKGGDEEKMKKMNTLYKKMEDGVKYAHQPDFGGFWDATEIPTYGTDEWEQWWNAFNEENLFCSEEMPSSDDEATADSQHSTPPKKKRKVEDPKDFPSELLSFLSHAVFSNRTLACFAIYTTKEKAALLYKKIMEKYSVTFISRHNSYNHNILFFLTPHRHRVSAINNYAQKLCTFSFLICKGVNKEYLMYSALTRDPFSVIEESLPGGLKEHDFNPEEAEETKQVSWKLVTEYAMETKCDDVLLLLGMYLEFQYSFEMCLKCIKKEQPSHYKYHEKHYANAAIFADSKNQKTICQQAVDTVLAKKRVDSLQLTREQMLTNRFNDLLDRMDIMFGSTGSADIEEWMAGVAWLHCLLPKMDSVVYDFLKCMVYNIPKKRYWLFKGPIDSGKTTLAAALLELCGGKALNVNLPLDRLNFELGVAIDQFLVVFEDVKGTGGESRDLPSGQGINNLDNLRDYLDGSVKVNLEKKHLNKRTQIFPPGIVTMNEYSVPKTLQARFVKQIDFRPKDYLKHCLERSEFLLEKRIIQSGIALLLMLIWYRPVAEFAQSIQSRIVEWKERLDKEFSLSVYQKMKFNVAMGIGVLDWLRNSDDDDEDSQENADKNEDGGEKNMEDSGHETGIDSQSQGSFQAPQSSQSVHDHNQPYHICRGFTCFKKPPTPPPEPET
Chain of Induced myeloid leukemia cell differentiation protein Mcl-1 (Q07820 whole entry): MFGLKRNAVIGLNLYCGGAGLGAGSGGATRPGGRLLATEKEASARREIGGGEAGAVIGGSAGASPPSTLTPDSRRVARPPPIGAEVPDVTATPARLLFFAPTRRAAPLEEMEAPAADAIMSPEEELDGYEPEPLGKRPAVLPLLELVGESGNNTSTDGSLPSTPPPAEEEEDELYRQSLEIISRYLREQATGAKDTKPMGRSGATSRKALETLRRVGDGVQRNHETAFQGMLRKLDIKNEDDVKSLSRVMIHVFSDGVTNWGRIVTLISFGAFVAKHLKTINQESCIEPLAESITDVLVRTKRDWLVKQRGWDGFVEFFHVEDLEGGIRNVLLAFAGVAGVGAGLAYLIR

O=C(CN1C(=O)/C(=C\c2cccs2)SC1=S)Nc1cccc(C(=O)O)c1
CC50 [1]: > 40 µM (active)

COc1cc(CNc2ccc(O)cc2)cc(Br)c1OCc1ccccc1
IC50 [2]: 13 µM (not active)
CC50 [1]: > 40 µM (active)
CC50 (Vero): > 40 µM (active)

O=C(Nc1nncs1)c1ccc(N2C(=O)C3C4C=CC(C4)C3C2=O)cc1 (stereo not given)
IC50 [3]: 62.9 µM (not active)

CC(C)NC(=O)c1nc2ccccc2s1
IC50 [4]: > 67.5 µM (inactive)
EC50 [5]: > 67.5 µM (inactive)

O=C(Cc1cccs1)N1CCC(c2nc(O)c3nnn(Cc4ccccc4)c3n2)CC1
IC50 [6]: > 122 µM (inactive)
IC50 [7]: > 122 µM (inactive)

Cn1c(C(=O)N2CCN(Cc3ccc4c(c3)OCO4)CC2)cc2c(=O)n(C)c3ccccc3c21
IC50 [3]: 72.6 µM (not active)

O=C(OCC1O[C@@H](OC(=O)c2cc(O)c(O)c(O)c2)[C@@H](OC(=O)c2cc(O)c(O)c(O)c2)[C@@H](OC(=O)c2cc(O)c(O)c(O)c2)[C@@H]1OC(=O)c1cc(O)c(O)c(O)c1)c1cc(O)c(O)c(O)c1 (stereo not given in full)
IC50 (Large T antigen): 4.51 µM (active)
IC50 [8]: 4.54 µM (active)
CC50 [1]: 20.6 µM (active)

O=[N+]([O-])c1ccc(Sc2ncccn2)c([N+](=O)[O-])c1
EC50 [9]: 6.83 µM (active)
IC50 [6]: > 123 µM (inactive)
IC50 [7]: > 123 µM (inactive)

O=C(/C=C/c1ccccc1)c1c[nH]c2ccccc12
IC50 [4]: > 67.4 µM (inactive)
EC50 [5]: > 67.4 µM (inactive)

Cc1cc(=O)oc2cc(OCC(=O)N3CCOCC3)c(Cl)cc12
EC50 (Kallikrein-7): > 69.6 µM (inactive)

COc1ccc(OC)c(/C=N/NC(=O)CN2CCSCC2)c1
EC50 (Kallikrein-7): 10.5 µM (inactive)

COc1ccc(/C=N/Nc2nc3ccccc3s2)cc1O
EC50 [10]: 0.947 µM (active)
EC50 [11]: 5.38 µM (active)
IC50 [4]: > 67.5 µM (inactive)
EC50 [5]: > 67.5 µM (inactive)
IC50 [12]: 102 µM (active)
